From US20240376163A1, “PEPTIDE FOR INHIBITING CALCINEURIN AND USE THEREOF” (Seoul National University R&DB Foundation, priority 2023, published 2024)

Experiments:
calcineurin = assay: Calcineurin cellular activity assay in Jurkat T cells; format: cell-based; conditions: Jurkat T cells expressing peptide or treated with FK506
Procedure: Calcineurin phosphatase activity was measured in vitro using the Calcineurin phosphatase assay kit (BML-AK804, Enzo Life Sciences, Farmingdale, NY, USA). GST or GST-tagged peptides were cultured with CNA for 30 min at room temperature and then performed according to the manufacturer's instructions. Jurkat T cells were transiently transfected with CAG-HA-mCherry-peptide by electroporation endogenous calcineurin phosphatase activity. After 24 hours, the Jurkat T cells were pretreated with FK506 for 1 hour before activation with PMA and ionomycin. Thereafter, the cells were washed with TBS buffer (20 mM Tris, pH 7.2, 150 mM NaCl), resuspended with lysis buffer in a calcineurin cell activity assay kit (BML-AK816, Enzo Life Sciences), and stored on ice for 30 min. Lysate supernatants were collected by gel filtration using Desaltting Column Resin included in the kit, free phosphate was removed, and performed according to the manufacturer's instructions.

NFATC2 = assay: NFAT mobility shifting assay in Jurkat T cells; format: cell-based; conditions: PMA and ionomycin
Procedure: In FIG. 2A, a luciferase reporter assay was performed to measure NFAT transcriptional activity. Jurkat T cells expressing GST-tagged peptides were treated with PMA and ionomycin for activation. Jurkat T cells expressing only GST were used as negative controls, and cells treated with 0.5 μM FK506 were used as positive controls (n=3). In FIG. 2B, an NFAT mobility shifting assay was performed using Jurkat T cells expressing HA-mCherry-tagged peptides. For dephosphorylation of NFATC2, Jurkat T cells were treated with PMA and ionomycin for 2 hours. In FIG. 2C, the hyperphosphorylated and hypophosphorylated NFATC2 of FIG. 2B was measured using ImageJ, and the hypo/hyper ratio was calculated (n=7). In FIG. 2D, snapshot images of the indicated peptides and activated Jurkat T cells expressing tNFATC2 were obtained using a confocal microscope. Expression and intracellular localization of peptides and tNFATC2 are indicated by mCherry (red) and EGFP (green), respectively. […] In FIG. 2E, tNFATC2 located in the nucleus was measured by calculating a ratio at which Hoechst (M1) and EGFP (M2) were present together. […] The data were repeated independently as many times as described and are expressed as means±standard deviation. Statistical differences were determined using two-sided Student's t-test (A, C) or one-way analysis of variance (E). *** p<0.001, NC: negative control. […]

CNAβ2 = target: T1, CNAβ2 (Homo sapiens, UniProt P16298); assay: Mammalian two-hybrid assay (GAL4 DBD-peptides, VP16 AD-CNAβ2, pG5-luc) in HEK293T cells; format: cell-based; conditions: HEK293T
T1 construct: expressed in transfected cells; host or cells: HEK293T
Procedure: (§1) To measure the transcriptional activity of NFAT, Jurkat T cells were cotransfected with GST-tagged peptides and NFAT-luc by electroporation. After 24 hours, the cells were pretreated with 0.5 μM FK506 for 1 hour and then treated with 40 nM PMA and 1 μM ionomycin for 8 hours. For mammalian two-hybrid assay, HEK293T cells were cotransfected with GAL4 DBD-tagged CABIN1, VIVIT, chimeric, and substituted peptides, VP16 activation domain-tagged CNAβ2, and pG5-luc (a luciferase reporter plasmid containing the GAL4 reaction promoter) for 24 hours. Harvested cells were lysed with luciferase assay lysis buffer (17 mM KH2PO4, 183 mM K2HPO4, pH 7.8, 0.2% [v/v] Triton X-100) and sonicated briefly. The luciferase activity against each cell lysate was measured using Infinite M200 (Tecan, Männedorf, and Switzerland). In addition, the expression level of the transfected protein was confirmed by Western blotting.

JNK1 = target: T2, JNK1 (Homo sapiens, UniProt P45983); assay: In vitro kinase assay; format: biochemical; conditions: purified GST-tagged peptide
T2 construct: purchased Proqinase GmbH (Freiburg, Germany)
Procedure: (§2) Purified GST-tagged peptides were used for the in vitro kinase assay using activated recombinant kinase obtained from Proqinase GmbH (Freiburg, Germany). Kinase reactions were induced in reaction buffer (50 mM HEPES-NaOH, pH 7.5, 3 mM MgCl2, 3 mM MnCl2, 3 μM sodium orthobanadate, 1 mM dithiothreitol, 50 μM unlabeled ATP, 5 μCi 32P-γ-ATP) for 1 hour at 30° C. The reaction was stopped by the addition of 5× sample buffer, and proteins were isolated using SDS-PAGE. The gels were stained with Coomassie Brilliant Blue, dried, and developed on X-ray film.

p38a = p38a (Homo sapiens, UniProt Q16539); assay: In vitro kinase assay; format: biochemical; conditions: purified GST-tagged peptide
Procedure: as §2

ERK2 = target: T3, ERK2 (Homo sapiens, UniProt P28482); assay: In vitro kinase assay; format: biochemical; conditions: purified GST-tagged peptide
T3 construct: purchased Proqinase GmbH (Freiburg, Germany)
Procedure: as §2

[1] = test system: NFAT transcriptional activity; assay: NFAT luciferase reporter assay in Jurkat T cells expressing GST-tagged peptides; format: cell-based; conditions: PMA and ionomycin treatment
Procedure: as §1

His6-tagged CNA = assay: In vitro peptide competition assay; format: binding; conditions: VIVIT 15-mer and CABIN1-L-1 peptide, molar ratio 1:50 to 1:400
Procedure: In FIG. 4A, an in vitro peptide competition assay was performed using VIVIT 15-mer and CABIN1-L-1 peptide in a dose-dependent manner. The molar ratio of GST-tagged peptide to competing peptide ranged from 1:50 to 1:400. In FIG. 4B, a mammalian two-hybrid assay was performed using VP16 AD-CNAβ2 and GAL4 DBD-peptide in HEK293T cells treated or not-treated with 1 μM ionomycin. The pM empty vector was used as a negative control. In FIG. 4C, a calcineurin cellular activity assay was performed using Jurkat T cells expressing HA-mCherry-tagged peptides. Jurkat T cells expressing only HA-mCherry were used as negative controls, and cells treated with FK506 were used as positive controls. […] Purified GST was used as a negative control. All experiments were repeated three times, and data were expressed as mean±standard deviation. Statistical differences were determined using one-way analysis of variance. * p<0.05, NS: no statistical significance, NC: negative control.

T1 sequence (P63098 2-170 partner limits assumed, other chains not shown): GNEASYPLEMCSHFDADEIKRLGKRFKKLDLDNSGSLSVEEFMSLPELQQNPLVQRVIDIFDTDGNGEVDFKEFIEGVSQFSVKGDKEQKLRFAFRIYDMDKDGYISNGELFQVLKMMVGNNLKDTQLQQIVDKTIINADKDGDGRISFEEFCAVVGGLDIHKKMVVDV
T3 sequence (P28482 whole entry): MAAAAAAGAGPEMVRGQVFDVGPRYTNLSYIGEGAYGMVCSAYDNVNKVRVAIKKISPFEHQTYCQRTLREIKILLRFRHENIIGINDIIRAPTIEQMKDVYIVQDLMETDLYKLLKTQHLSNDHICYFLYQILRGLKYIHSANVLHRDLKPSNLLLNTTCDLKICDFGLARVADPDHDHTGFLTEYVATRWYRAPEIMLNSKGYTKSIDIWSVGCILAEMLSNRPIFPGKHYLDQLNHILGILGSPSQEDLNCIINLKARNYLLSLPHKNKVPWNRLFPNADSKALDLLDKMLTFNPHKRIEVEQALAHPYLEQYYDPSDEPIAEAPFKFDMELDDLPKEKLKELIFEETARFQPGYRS
T2 sequence (P45983 whole entry): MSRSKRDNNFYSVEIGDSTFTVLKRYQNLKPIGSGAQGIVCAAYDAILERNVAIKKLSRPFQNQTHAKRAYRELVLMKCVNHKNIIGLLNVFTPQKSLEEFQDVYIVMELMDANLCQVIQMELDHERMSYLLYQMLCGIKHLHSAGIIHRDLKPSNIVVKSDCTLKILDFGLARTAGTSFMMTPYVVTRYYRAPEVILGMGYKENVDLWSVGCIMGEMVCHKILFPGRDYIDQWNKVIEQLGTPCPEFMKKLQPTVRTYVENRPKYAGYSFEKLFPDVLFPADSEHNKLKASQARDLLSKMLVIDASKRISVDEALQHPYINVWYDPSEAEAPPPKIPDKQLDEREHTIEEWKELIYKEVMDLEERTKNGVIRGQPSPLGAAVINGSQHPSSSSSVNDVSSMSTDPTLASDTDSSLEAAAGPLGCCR
Chain of p38a (Q16539 whole entry): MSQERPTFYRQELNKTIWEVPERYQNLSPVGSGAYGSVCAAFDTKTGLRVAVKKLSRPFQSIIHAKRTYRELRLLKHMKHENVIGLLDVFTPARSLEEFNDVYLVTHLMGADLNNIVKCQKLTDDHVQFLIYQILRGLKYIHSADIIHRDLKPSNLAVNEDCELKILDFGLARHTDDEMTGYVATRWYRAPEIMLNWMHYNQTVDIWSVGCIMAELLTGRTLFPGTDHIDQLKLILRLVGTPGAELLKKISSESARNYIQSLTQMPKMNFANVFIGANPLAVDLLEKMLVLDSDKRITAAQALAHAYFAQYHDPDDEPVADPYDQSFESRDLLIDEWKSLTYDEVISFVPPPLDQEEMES

C=CC[C@@H]1/C=C(\C)C[C@H](C)C[C@H](OC)[C@H]2O[C@@](O)(C(=O)C(=O)N3CCCC[C@H]3C(=O)O[C@H](/C(C)=C/[C@@H]3CC[C@@H](O)[C@H](OC)C3)[C@H](C)[C@@H](O)CC1=O)[C@H](C)C[C@@H]2OC [FK506, Tacrolimus, reference compound]
calcineurin phosphatase activity in cells (calcineurin): reduced the phosphatase activity of CNA | NFATC2 band shift (dephosphorylation) (NFATC2): significantly inhibited NFATC2 band shift

PEITVTPPTP [CABIN1-L-1-2]
effect of ionomycin treatment on interaction with CNA (CNAβ2; 1 μM ionomycin): did not affect the interaction | binding to CNA (CNAβ2; GAL4 DBD-tagged peptides, VP16 activation domain-tagged CNA): still bound to CNA | phosphorylation by JNK1 (JNK1): phosphorylate | phosphorylation by p38a (p38a): phosphorylate | phosphorylation by ERK2 (ERK2): phosphorylate | NFAT transcriptional activity (luciferase activity) [1]: inhibited luciferase activity compared to the negative control | inhibitory effect on NFAT luciferase activity relative to VIVIT peptide [1]: approximately 4 times | NFATC2 band shift (dephosphorylation) (NFATC2): significantly inhibited NFATC2 band shift | competition for CNA binding (His6-tagged CNA): dose-dependently interfered with the interaction between GST-tagged VIVIT peptide and His6-tagged CNA
